The source of these data is patent publication US20110207697A1, “XANTHOHUMOL COMPOSITIONS AND METHODS FOR TREATING SKIN DISEASES OR DISORDERS” (Betal, LLC, priority 2008, published 2011).

One data set deals with S. aureus (ATCC 6538P). Put plainly: Antimicrobial susceptibility, broth dilution (MIC/MBC). The class given is cell-based, Staphylococcus aureus. On the procedure:
(§1) The antibacterial effects of seven hops components against five different strains of bacteria involved in primary or secondary skin and soft tissue infections was evaluated, with broth dilution methods. […] Antimicrobial susceptibility testing was performed using a broth dilution method. Gentamicin or ampicillin was used as a control to verify the methodology. A stock solution (20 mg/ml) of the test substance (or vehicle control) was prepared in dimethyl sulfoxide. Serial dilution was done in microwell plates. Reinforced Clostridial Medium was used for P. acnes (ATCC 6919). Three hundreds […] of the test substance was added to the test tube containing P. acnes (10^5 CFU/ml) in 2.7 ml of cultures grown under anaerobic conditions. Mueller-Hinston Broth suitable for culturing S. epidermidis (ATCC 12228), K. rhizophila (formerly M. luteus) (ATCC 9341), and S. aureus (ATCC […]), and Brain Heart Infusion Broth suitable for culturing S. pyogenes (ATCC 14289) were used. A total of […] of the test substance was added to the test tube containing the other microorganisms (10^5CFU/ml) in 0.9 ml of cultures grown under controlled conditions. […] Samples from those tubes that scored positive was plated onto an agar plate and incubated under controlled conditions.
On the technique in general: In broth dilution the organism is exposed to a series of concentrations in liquid medium.

The nature of data set [1]: ORAC-Total (ORAClipo + ORAChydro). From the text: An ORAC method for lipophilic antioxidants was further developed and validated using fluorescein as the fluorescent probe (Prior et al. 2003 J. Agric. Food Chem. 51: 3273-3279). This method has the advantage that similar assay conditions and standards can be used for both hydrophilic and lipophilic antioxidant components, such that the two values can be added together to obtain a total antioxidant capacity. In the present work, the ORAC value is expressed as the sum of values of both the water-soluble and fat-soluble parts. Green tea catechins (Polyphenon 60) were used as the control with the highest ORAC value among edible plants. Vitamin C and vitamin E were used as controls for water- and fat-soluble molecules, respectively. […] The SOAC scores are not included in this figure; ORAC values used are the sum of lipophilic and hydrophilic results. For each assay category, scaling was made logarithmic so that the plot on the chart resembles the associated rating. […] The larger the spatial area, the higher the overall antioxidative capacity. […] Both hydrophilic and lipophilic oxygen radical absorbance capacity (ORAC) assays were carried out at Brunswick Laboratory (Wareham, Mass.) based on the modified ORACfl method reported by Ou et al. (2001 J. Agric. Food Chem. 49: 4619-4626, 2002 J. Agr. Food Chem. 50: 3122-3128). Trolox, a water-soluble vitamin E analog, was used as the calibration standard. The data are expressed as mmole of Trolox equivalents per gram (mmol TE/g). The acceptable precision of the ORAC assay is a 15% relative standard deviation. Caffeic acid was used as the calibration standard. Hydroxyl radical ORAC (HOR-AC) is expressed as mmole caffeic acid equivalent per gram (mmol CAE/g). Trolox was used as the calibration standard. The peroxyl nitrite ORAC (NORAC) result is expressed as mmol TE/g. Alpha-tocopherol (vitamin E) was used as the calibration standard, and the singlet oxygen absorbance capacity (SOAC) result is expressed as mmole a-tocopherol equivalent (mmol VtE) per gram (Aubry et al. 1989). The abbreviation for the 1,1-diphenyl-2-picrylhydrazyl radical is DPPH. Radical-scavenging activity was measured by the change in absorbance at 517 nm with the DPPH result expressed as mmol TE/g. Similarly, FRAP is an abbreviation for the ferric reducing antioxidative power method, which utilizes chemical conversion of the yellow Fe 3+-2,4,6-tripyridyl s-triazine (TPTZ) complex to the blue Fe 2+-TPTZ complex by electron donation under acidic conditions (Okada and Okada 1998 J. Agric. Food Chem. 46: 401-406). The FRAP result is expressed as mmol TE/g (Ou et al. 2002b). Superoxide dismutase (SOD) was used as a calibration standard; the SOD result is expressed as kilo unit SOD equivalent (kunitSODeq) per gram.

The subject of data set [2] is S. epidermidis (ATCC 12228). Put plainly: Antimicrobial susceptibility, broth dilution (MIC/MBC). The class given is cell-based, Staphylococcus epidermidis. On the procedure:
as §1

The nature of data set [3]: Water solubility of xanthohumol (HPLC of supernatant). The class given is physicochemical. The conditions noted are these: thermodynamic from solid, 1 mg xanthohumol per ml water, sonicated 5 minutes. On the procedure:
Pure xanthohumol (XN), Xanohop A, xanthohumol-gamma cyclodextrin (XN/gCD), and xanthohumol-beta cyclodextrin (XN/bCD) were dispersed in water at a ratio of 1 mg xanthohumol per ml of water. After being sonicated for 5 minutes, the resultant suspensions were centrifuged at 3,000 rpm for 2 minutes or 12,000 rpm for 3 minutes. The supernatants thus formed were collected, diluted (1:10) with methanol, and then injected into HPLC to determine xanthohumol concentrations.

For data set [4], the target named is T1, neutrophil collagenase (MMP-8) (Homo sapiens, UniProt P22894).
T1 construct: from tissue; host or cells: human neutrophils
Put plainly: Anticollagenase assay. The conditions noted are these: mean of three measurements. The class given is biochemical. As to the method:
Human recombinant matrix metalloproteinase-MMP-1) pro-enzyme, expressed in mammalian cells, and human nutrophil MMP-8 pro-enzyme were activated with 4-aminophenylmercuric acetate for 60 min 37 1 C, respectively (Knight et al. 1992 FEBS Lett. 296: 263-266). Hop components and vehicle were preincubated with 5 nM MMP- and 6 nM MMP-8 active enzymes in a modified MOPS buffer, pH 7.2, for 60 minutes at 37 C. The reaction was initiated by addition of […] Mca-Pro-Leu-Gly-Leu-Dpa-Ala-Arg for another 120-minute incubation period. The determination of the amount of Mca-Pro-Leu-Gly formed was read spectrofluorimetrically at 340/400 nm. Tissue inhibitors of metalloproteinase TIMP-1 and TIMP-2 were used as positive controls (Olson et 1997 J. Biol. Chem. 272: 29975-29983).

In the next data set the test system is P. acnes (ATCC 6919). Description: Antimicrobial susceptibility, broth dilution (MIC/MBC). The class given is cell-based, Propionibacterium acnes. On the procedure:
as §1

Converted amounts (≈) assume the structure as drawn. Read-outs that look alike come from different tables or passages of the source.

T1 sequence (P22894 101-467): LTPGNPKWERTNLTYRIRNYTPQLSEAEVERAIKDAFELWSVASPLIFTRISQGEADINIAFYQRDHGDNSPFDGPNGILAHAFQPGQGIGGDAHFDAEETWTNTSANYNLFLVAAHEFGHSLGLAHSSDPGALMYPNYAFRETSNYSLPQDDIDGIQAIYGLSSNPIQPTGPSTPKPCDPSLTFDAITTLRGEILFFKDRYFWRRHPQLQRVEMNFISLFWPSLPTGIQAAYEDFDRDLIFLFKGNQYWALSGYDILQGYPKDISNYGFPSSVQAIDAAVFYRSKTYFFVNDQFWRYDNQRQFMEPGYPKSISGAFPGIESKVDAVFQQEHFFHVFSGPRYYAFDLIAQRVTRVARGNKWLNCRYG

In general, MBC refers to the smallest concentration meeting the test's criterion for killing. By MIC is commonly meant the lowest concentration that inhibits growth of the organism. A high value points to a less susceptible organism. Broadly, the solubility is how much of the substance goes into solution per volume. Take `COc1cc(O)c(CC=C(C)C)c(O)c1C(=O)/C=C/c1ccc(O)cc1` [Xanthohumol (7), 3′-[3,3-dimethylallyl]-2′,4′,4-trihydroxy-6′-methoxychalcone]: the MBC result against S. aureus (ATCC 6538P) was “[100] g/mL”; in data set [2], “[10] g/mL”; in the data set on P. acnes (ATCC 6919) (Cutibacterium acnes, ATCC6919, read-out: MBC), 3000 µg/mL (≈ 8460 µM); against P. acnes (ATCC 6919) (lowest concentration required to kill) it was “[3] g/mL”. Moreover, the minimum inhibitory concentration (MIC) was determined as 1 µg/mL (≈ 2.82 µM) in the data set on S. aureus (ATCC 6538P) (1 day); 1000 µg/mL (≈ 2820 µM) with S. aureus (ATCC 6538P) (Staphylococcus aureus, ATCC6538P); 3 µg/mL (≈ 8.46 µM) in data set [2] (1 day); 1000 µg/mL (≈ 2820 µM) in data set [2] (Staphylococcus epidermidis, ATCC12228); 3 µg/mL (≈ 8.46 µM) in the data set on P. acnes (ATCC 6919) (minimal 100% inhibitory concentration, 2 days). In addition, in data set [1] (FIG. 2 radar chart), the “quenching activity against peroxyl radical (ORAC-total), rank among hop components” value is listed as “highest quenching activity”. For the same molecule, the “ORAC-Total (Trolox equivalent)” value in data set [1] (ORAClipo + ORAChydro) was determined as 4.2 Trolox equivalent. Further, the solubility at 5 min in data set [3] (centrifuged 3,000 rpm 2 minutes, read-out: Water-solubility of XN (3,000 rpm)) was 4 µg/mL (≈ 11.3 µM); in data set [3] (centrifuged 12,000 rpm 3 minutes, read-out: Water-solubility of XN (12,000 rpm)), 2 µg/mL (≈ 5.64 µM). Also, the “Inhibitory ratio (%) MMP-8” value in data set [4] (10 μg/mL) amounted to 31%; in data set [4] (30 μg/mL), 70%; in data set [4] (100 μg/mL), 99%.
